{"source": "ChEMBL document CHEMBL4619759", "about": "“A DNA Repair Inhibitor Isolated from an Ecuadorian Fungal Endophyte Exhibits Synthetic Lethality in PTEN-Deficient Glioblastoma” (2020)", "key": {"[1]": {"tested_on": "U-251", "assay": "Selective cytotoxicity against PTEN-deficient human U251 cells at 12.5 ug/ml after 48 hrs by CellTiter-Glo luminescent cell viability assay", "format": "functional, cell-based"}, "[2]": {"tested_on": "U-251", "assay": "Induction of cell cycle arrest in PTEN-deficient human U251 cells assessed as accumulation at G1 phase at 6.25 to 12.5 ug/ml after 4 to 24 hrs by PI staining based flow cytometric analysis", "format": "functional"}, "[3]": {"tested_on": "U-251", "assay": "Inhibition of DSB repair in PTEN-deficient human U251 cells at 12.5 ug/ml by neutral comet assay", "format": "functional, cell-based"}, "[4]": {"tested_on": "U-251", "assay": "Induction of DNA damage in PTEN-deficient human U251 cells assessed as gammaH2AX accumulation at 6.25 to 12.5 ug/ml after 4 to 24 hrs by PI staining based flow cytometric analysis", "format": "functional, cell-based"}, "[5]": {"assay": "Inhibition of DSB repair in PTEN-deficient human U2OS EJ-DR cells assessed as reduction in homologous recombination activity at 12.5 ug/ml incubated for 24 hrs in presence of DSB inducer by flow cytometric analysis relative to control", "format": "functional"}, "[6]": {"assay": "Inhibition of DSB repair in PTEN-deficient human U2OS EJ-DR cells assessed as reduction in mutagenic non-homologous end joining activity at 12.5 ug/ml incubated for 24 hrs in presence of DSB inducer by flow cytometric analysis relative to control", "format": "functional"}, "[7]": {"tested_on": "U-251", "assay": "Inhibition of DSB repair in PTEN-deficient 5 Gy IR-induced human U251 cells assessed as increase in comet tail moment at 12.5 ug/ml pretreated followed by irradiation with 5 Gy IR by neutral comet assay", "format": "functional, cell-based"}, "[8]": {"tested_on": "U-251", "assay": "Induction of DNA damage in PTEN-deficient human U251 cells assessed as gammaH2AX foci formation at 12.5 ug/ml in presence of 5 Gy IR irradiation measured after 4 to 24 hrs by PI staining based flow cytometric analysis", "format": "functional, cell-based"}, "[9]": {"tested_on": "U-251", "assay": "Induction of DNA damage in PTEN-deficient human U251 cells assessed as accumulation of gammaH2AX positive cells at G1 phase at 12.5 ug/ml in presence of 5 Gy IR irradiation measured after 4 to 24 hrs by PI staining based flow cytometric analysis", "format": "functional, cell-based"}, "[10]": {"tested_on": "U-251", "assay": "Induction of cell cycle arrest in PTEN-deficient human U251 cells assessed as accumulation at G2/M phase at 6.25 to 12.5 ug/ml incubated for 4 hrs followed by irradiation with 5 Gy IR by PI staining based flow cytometric analysis", "format": "functional"}, "[11]": {"tested_on": "U-251", "assay": "Induction of cell cycle arrest in PTEN-proficient human U251 cells assessed as accumulation at G2/M phase at 6.25 to 12.5 ug/ml incubated for 4 hrs followed by irradiation with 5 Gy IR by PI staining based flow cytometric analysis", "format": "functional"}, "[12]": {"tested_on": "U-251", "assay": "Radiosensitizer activity in PTEN-deficient human U251 cells assessed as reduction in cell survival at 6.25 to 12.5 ug/ml in presence of 5 Gy IR irradiation by CellTiter-Glo cell viability assay", "format": "functional, cell-based"}, "[13]": {"tested_on": "U-251", "assay": "Induction of DNA damage in PTEN-deficient human U251 cells assessed as accumulation of gammaH2AX positive cells at G1 phase at 6.25 to 12.5 ug/ml measured after 4 to 24 hrs by PI staining based flow cytometric analysis", "format": "functional, cell-based"}, "[14]": {"tested_on": "U-251", "assay": "Induction of DNA damage in PTEN-deficient human U251 cells assessed as accumulation of gammaH2AX positive cells at S phase at 6.25 to 12.5 ug/ml measured after 4 to 24 hrs by PI staining based flow cytometric analysis", "format": "functional, cell-based"}, "[15]": {"tested_on": "U-251", "assay": "Induction of DNA damage in PTEN-deficient human U251 cells assessed as accumulation of gammaH2AX positive cells at G2/M phase at 6.25 to 12.5 ug/ml measured after 4 to 24 hrs by PI staining based flow cytometric analysis", "format": "functional, cell-based"}, "[16]": {"tested_on": "U-251", "assay": "Induction of DNA damage in PTEN-proficient human U251 cells assessed as accumulation of gammaH2AX positive cells at G1 phase at 6.25 to 12.5 ug/ml measured after 4 to 24 hrs by PI staining based flow cytometric analysis", "format": "functional, cell-based"}, "[17]": {"tested_on": "U-251", "assay": "Induction of DNA damage in PTEN-proficient human U251 cells assessed as accumulation of gammaH2AX positive cells at S phase at 6.25 to 12.5 ug/ml measured after 4 to 24 hrs by PI staining based flow cytometric analysis", "format": "functional, cell-based"}, "[18]": {"tested_on": "U-251", "assay": "Induction of DNA damage in PTEN-proficient human U251 cells assessed as accumulation of gammaH2AX positive cells at G2/M phase at 6.25 to 12.5 ug/ml measured after 4 to 24 hrs by PI staining based flow cytometric analysis", "format": "functional, cell-based"}}, "note": "The source made the active and inactive calls. The rule behind the calls is not given here.", "data": [{"smiles": "O=C1Nc2ccccc2-c2ccnc3ccc(O)c1c23", "values": [{"measurement": "Activity", "setting": "[1]", "value": "Active"}, {"measurement": "Activity", "setting": "[2]", "value": "Active"}, {"measurement": "inhibition", "setting": "[3]", "value": "Active"}, {"measurement": "Activity", "setting": "[4]", "value": "Active"}, {"measurement": "inhibition at 12.5 µg/mL", "setting": "[5]", "value": 46, "unit": "%"}, {"measurement": "inhibition at 12.5 µg/mL", "setting": "[6]", "value": 48, "unit": "%"}, {"measurement": "inhibition", "setting": "[7]", "value": "Active"}, {"measurement": "Activity", "setting": "[8]", "value": "Active"}, {"measurement": "Activity", "setting": "[9]", "value": "Active"}, {"measurement": "Activity", "setting": "[10]", "value": "Active"}, {"measurement": "Activity", "setting": "[11]", "value": "Active"}, {"measurement": "Activity", "setting": "[12]", "value": "Active"}, {"measurement": "Activity", "setting": "[13]", "value": "inactive"}, {"measurement": "Activity", "setting": "[14]", "value": "inactive"}, {"measurement": "Activity", "setting": "[15]", "value": "inactive"}, {"measurement": "Activity", "setting": "[16]", "value": "inactive"}, {"measurement": "Activity", "setting": "[17]", "value": "inactive"}, {"measurement": "Activity", "setting": "[18]", "value": "inactive"}]}]}
